The values that follow come from PubChem BioAssay AID248 (DTP/NCI, 2004).

Values joined by “and” are separate entries in the source; they are usually repeats but may differ in a detail not shown here. Equal entries are not always repeated. Toxic doses and inconclusive results are not listed.

In the test the test system is L1210 leukemia ip in BDF1 mice, survival T/C. The test is described as follows: NCI In Vivo Anticancer Drug Screen. Data for tumor model L1210 Leukemia (intraperitoneal) in B6D2F1 (BDF1) mice. The following applies: endpoint: mean survival time, higher = longer survival. The method, boiled down: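 Antitumor effect is assessed in tumor-bearing animals. Survival in the compound arm is compared with a vehicle-dosed control arm and expressed as their quotient.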

Setting [1] is: dose: 100.0 mg/kg/injection, schedule: Q01DX009 (ip), vehicle: saline with Tween-80.
The mark [2] stands for this setting: dose: 100.0 mg/kg/injection, schedule: Q04DX003 (ip), vehicle: saline with Tween-80.
Setting [3] is: dose: 200.0 mg/kg/injection, schedule: Q01DX009 (ip), vehicle: saline with Tween-80.
The mark [4] stands for this setting: dose: 200.0 mg/kg/injection, schedule: Q04DX003 (ip), vehicle: saline with Tween-80.
Where [5] appears, read: dose: 400.0 mg/kg/injection, schedule: Q01DX009 (ip), vehicle: saline with Tween-80.
The mark [6] stands for this setting: dose: 400.0 mg/kg/injection, schedule: Q04DX003 (ip), vehicle: saline with Tween-80.
The mark [7] stands for this setting: dose: 100.0 mg/kg/injection, schedule: Q01DX001 (ip), vehicle: carboxymethylcellulose (CMC).
The mark [8] stands for this setting: dose: 200.0 mg/kg/injection, schedule: Q01DX001 (ip), vehicle: carboxymethylcellulose (CMC).
The mark [9] stands for this setting: dose: 400.0 mg/kg/injection, schedule: Q01DX001 (ip), vehicle: carboxymethylcellulose (CMC).
The mark [10] stands for this setting: dose: 100.0 mg/kg/injection, schedule: Q01DX001 (ip), vehicle: Klucel (hydroxypropylcellulose) (HPC).
The mark [11] stands for this setting: dose: 200.0 mg/kg/injection, schedule: Q01DX001 (ip), vehicle: Klucel (hydroxypropylcellulose) (HPC).
Where [12] appears, read: dose: 400.0 mg/kg/injection, schedule: Q01DX001 (ip), vehicle: Klucel (hydroxypropylcellulose) (HPC).
The mark [13] stands for this setting: dose: 100.0 mg/kg/injection, schedule: Q04DX003 (ip), vehicle: Klucel (hydroxypropylcellulose) (HPC).
[14] abbreviates: dose: 200.0 mg/kg/injection, schedule: Q04DX003 (ip), vehicle: Klucel (hydroxypropylcellulose) (HPC).
Setting [15] is: dose: 400.0 mg/kg/injection, schedule: Q04DX003 (ip), vehicle: Klucel (hydroxypropylcellulose) (HPC).
[16] abbreviates: dose: 100.0 mg/kg/injection, schedule: Q01DX009 (ip), vehicle: Klucel (hydroxypropylcellulose) (HPC).
Where [17] appears, read: dose: 200.0 mg/kg/injection, schedule: Q01DX009 (ip), vehicle: Klucel (hydroxypropylcellulose) (HPC).
The mark [18] stands for this setting: dose: 100.0 mg/kg/injection, schedule: Q04DX002 (ip), vehicle: Klucel (hydroxypropylcellulose) (HPC).
Setting [19] is: dose: 200.0 mg/kg/injection, schedule: Q04DX002 (ip), vehicle: Klucel (hydroxypropylcellulose) (HPC).
[20] abbreviates: dose: 400.0 mg/kg/injection, schedule: Q04DX002 (ip), vehicle: Klucel (hydroxypropylcellulose) (HPC).

On to `CCOC(=O)Nc1cc(Cl)cc(NC(=O)OCC)n1`, for which the T/C is 94 % of control (dose: 100.0 mg/kg/injection, schedule: Q01DX001 (ip), vehicle: other); 96 % of control under setting [1]; 107 % of control under setting [2]; 102 % of control (dose: 200.0 mg/kg/injection, schedule: Q01DX001 (ip), vehicle: other); 106 % of control under setting [3]; 100 % of control under setting [4]. Also, the T/C runs as follows: (dose: 400.0 mg/kg/injection, schedule: Q01DX001 (ip), vehicle: other) 96 % of control; under setting [5], 96 % of control; under setting [6], 108 % of control.

Consider `c1ccc([P+](C2=NNCC2)(c2ccccc2)c2ccccc2)cc1`, for which the T/C was 105 % of control (dose: 6.25 mg/kg/injection, schedule: Q01DX009 (ip), vehicle: Klucel (hydroxypropylcellulose) (HPC)); 118 % of control (dose: 12.5 mg/kg/injection, schedule: Q01DX009 (ip), vehicle: Klucel (hydroxypropylcellulose) (HPC)); 105 % of control and 109 % of control (dose: 25.0 mg/kg/injection, schedule: Q01DX009 (ip), vehicle: Klucel (hydroxypropylcellulose) (HPC)).

For the molecule `Cc1c2c(c(C)c3c1[nH]c1ccccc13)CCN=C2`, the T/C was 104 % of control (dose: 50.0 mg/kg/injection, schedule: Q01DX001 (ip), vehicle: carboxymethylcellulose (CMC)); 114 % of control under setting [7]; 104 % of control under setting [8]; 111 % of control under setting [9].

As to `O=C(NC1CCCCC1)c1ccc([N+](=O)[O-])cc1`, the T/C is, setting by setting: under setting [10], 104 % of control; under setting [11], 101 % of control; under setting [12], 101 % of control.

With `O=C(Nc1ccc(Br)cc1)Nc1ccccc1Cl`, the T/C reads like this: (dose: 100.0 mg/kg/injection, schedule: Q04DX002 (ip), vehicle: saline + alcohol) 100 % of control; (dose: 200.0 mg/kg/injection, schedule: Q04DX002 (ip), vehicle: saline + alcohol) 94 % of control; (dose: 400.0 mg/kg/injection, schedule: Q04DX002 (ip), vehicle: saline + alcohol) 96 % of control.

On to `CCCCC(=O)N/N=C\c1cccc([N+](=O)[O-])c1`, for which the T/C under setting [7] is 92 % of control, the T/C under setting [8] was 92 % of control and the T/C under setting [9] is 95 % of control.

In the case of `O=C(O)C1CC(=O)N(Cc2ccccc2)C1` (centres undefined), the T/C was 102 % of control under setting [1]; 100 % of control under setting [2]; 90 % of control under setting [3]; 107 % of control under setting [4]; 98 % of control under setting [5]; 96 % of control under setting [6].

Regarding `Cn1c2nc3ccccc3c-2nc2ccccc21`, the T/C under setting [2] is 91 % of control, the T/C under setting [4] is 94 % of control and the T/C under setting [6] was 86 % of control.

On to `CCOC(=O)CCc1c(C(=O)O)[nH]c(C(=O)OCC)c1C`, for which the T/C by setting is: (dose: 25.0 mg/kg/injection, schedule: Q04DX003 (ip), vehicle: Klucel (hydroxypropylcellulose) (HPC)) 102 % of control; (dose: 50.0 mg/kg/injection, schedule: Q04DX003 (ip), vehicle: Klucel (hydroxypropylcellulose) (HPC)) 107 % of control; under setting [10], 98 % of control; under setting [13], 102 % of control; under setting [11], 97 % of control; under setting [14], 93 % of control. Besides, the T/C was 97 % of control under setting [12] and 101 % of control under setting [15].

On to `O=C(CCN1CC1)NCCCCCCCCNC(=O)CCN1CC1`, for which the T/C runs as follows: (dose: 1.0 mg/kg/injection, schedule: Q01DX009 (ip), vehicle: saline) 91 % of control; (dose: 2.0 mg/kg/injection, schedule: Q01DX009 (ip), vehicle: saline) 105 % of control; (dose: 4.0 mg/kg/injection, schedule: Q01DX009 (ip), vehicle: carboxymethylcellulose (CMC)) 111 % of control; (dose: 8.0 mg/kg/injection, schedule: Q01DX009 (ip), vehicle: carboxymethylcellulose (CMC)) 96 % of control; (dose: 22.0 mg/kg/injection, schedule: Q01DX001 (ip), vehicle: carboxymethylcellulose (CMC)) 111 % of control; (dose: 26.0 mg/kg/injection, schedule: Q01DX009 (ip), vehicle: carboxymethylcellulose (CMC)) 151 % of control. In addition, the T/C was 122 % of control (dose: 33.0 mg/kg/injection, schedule: Q01DX001 (ip), vehicle: carboxymethylcellulose (CMC)); 151 % of control (dose: 33.0 mg/kg/injection, schedule: Q01DX009 (ip), vehicle: carboxymethylcellulose (CMC)); 160 % of control (dose: 50.0 mg/kg/injection, schedule: Q01DX009 (ip), vehicle: carboxymethylcellulose (CMC)); 150 % of control (dose: 75.0 mg/kg/injection, schedule: Q01DX001 (ip), vehicle: carboxymethylcellulose (CMC)).

`COc1ccc2c(c1)C(=O)CCN2`: the T/C is, setting by setting: under setting [16], 100 % of control; under setting [13], 102 % of control; under setting [17], 95 % of control; under setting [14], 104 % of control; under setting [15], 93 % of control.

For `CC(C)(C)C(=O)NO`, the T/C under setting [18] was 110 % of control, the T/C under setting [19] is 90 % of control and the T/C under setting [20] is 102 % of control.

As to `COC1OC2COc3ccccc3OC2C2NC12` (centres undefined), the T/C reads like this: under setting [18], 98 % of control; under setting [19], 105 % of control; under setting [20], 102 % of control.

Regarding `CC(C)CN=C(N)CSS(=O)(=O)O`, the T/C is 102 % of control (dose: 12.5 mg/kg/injection, schedule: Q04DX002 (ip), vehicle: Klucel (hydroxypropylcellulose) (HPC)); 105 % of control (dose: 25.0 mg/kg/injection, schedule: Q04DX002 (ip), vehicle: Klucel (hydroxypropylcellulose) (HPC)); 94 % of control (dose: 50.0 mg/kg/injection, schedule: Q04DX002 (ip), vehicle: Klucel (hydroxypropylcellulose) (HPC)); 94 % of control under setting [19].

Turning to `O=[N+]([O-])/C(=C/c1ccccc1)c1ccccc1`, the T/C was 102 % of control (dose: 50.0 mg/kg/injection, schedule: Q01DX001 (ip), vehicle: saline); 108 % of control (dose: 100.0 mg/kg/injection, schedule: Q01DX001 (ip), vehicle: saline); 104 % of control (dose: 200.0 mg/kg/injection, schedule: Q01DX001 (ip), vehicle: saline).

With `Cc1nc(C(N)=O)c2nc3c4ccccc4c4ccccc4c3nn12`, the T/C is, setting by setting: (dose: 25.0 mg/kg/injection, schedule: Q04DX002 (ip), vehicle: saline with Tween-80) 94 % of control; (dose: 50.0 mg/kg/injection, schedule: Q04DX002 (ip), vehicle: saline with Tween-80) 91 % of control; (dose: 100.0 mg/kg/injection, schedule: Q04DX002 (ip), vehicle: saline with Tween-80) 87 % of control; (dose: 200.0 mg/kg/injection, schedule: Q04DX002 (ip), vehicle: saline with Tween-80) 89 % of control; (dose: 400.0 mg/kg/injection, schedule: Q04DX002 (ip), vehicle: saline with Tween-80) 92 % of control.

As for `Cc1ccc(N=Cc2ccc3c(c2)OCO3)cc1`, the T/C was 100 % of control under setting [10]; 91 % of control under setting [16]; 104 % of control under setting [11]; 105 % of control under setting [17]; 118 % of control under setting [12]; 98 % of control (dose: 400.0 mg/kg/injection, schedule: Q01DX009 (ip), vehicle: Klucel (hydroxypropylcellulose) (HPC)).

`CC(Nc1ccccc1)(C(N)=O)c1ccccc1` (centres undefined): the T/C is, setting by setting: (dose: 100.0 mg/kg/injection, schedule: Q01DX001 (ip), vehicle: saline sonified) 96 % of control; (dose: 200.0 mg/kg/injection, schedule: Q01DX001 (ip), vehicle: saline sonified) 100 % of control; (dose: 400.0 mg/kg/injection, schedule: Q01DX001 (ip), vehicle: saline sonified) 97 % of control.
